The test system of assay [1] is propiconazole resistant mutants of Chlorella species (PcZ-1). In words: Growth (OD at 750 nm) of PcZ-1 mutant with and without 10 μM propiconazole, compared with wild type. The assay is classed as cell-based, Chlorella sorokiniana. The following applies: for Average % increase PcZ-1 + 10 uM PcZ / % increase PcZ-1 + 10 μM PcZ: PcZ-1 with 10 μM propiconazole vs wild type without propiconazole; for % increase PcZ-1 + 10 μM PcZ: individual replicates, listed as PcZ. As to the method:
(§1) Chlorella sorokiniana cells (Wild type) and propiconazole resistant mutants of Chlorella species (PcZ-1) were inoculated at 0.1-0.15 OD@750 nm (each set in triplicates). To verify the effect of methanol (propiconazole was dissolved in methanol), one set was treated with 0.1% methanol. One set of flasks in triplicate of Wild type and PcZ-1 mutants were inoculated with and without 10 μM propiconazole. After inoculation flasks were kept in 12 h light/12 hour dark cycles of white light in an incubator shaker at 100 rpm. The temperature was 28° C., 70% humidity and 2% ambient CO2. 3 mL sample was removed each day, to determine the Optical density (OD) of the culture at 750 nm. The results obtained are as illustrated in FIG. 1.
FIG. 1 illustrates a graph of the growth comparison between wild type Chlorella sorokiniana and propiconazole resistant mutants of Chlorella species Chlorella sorokiniana mutant PcZ-1, in the presence of propiconazole, wherein A represents wild type Chlorella sorokiniana grown in the absence of propiconazole, B represents wild type Chlorella sorokiniana grown in the presence of 0.1% methanol, C represents wild type Chlorella sorokiniana grown in the presence of 10 μM propiconazole, D represents PcZ-1 grown in the absence of propiconazole, E represents PcZ-1 grown in the presence of 0.1% methanol, and F represents PcZ-1 grown in the presence of 10 μM propiconazole. […] The propiconazole resistant mutants of Chlorella species (PcZ-1) was not affected by the presence of propiconazole, and continued to grow.

A further assay relates to grazers. The following applies: general statement, no test described; cited from earlier work.
Assay [2] concerns wild type Chlorella sorokiniana. In words: Growth (OD at 750 nm) of wild type Chlorella sorokiniana in the presence of propiconazole. It counts as cell-based. Conditions: 10 μM propiconazole; culture typically crashes after a few days. How it is done:
as §1
FIG. 1 illustrates a graph of the growth comparison between wild type Chlorella sorokiniana and propiconazole resistant mutants of Chlorella species Chlorella sorokiniana mutant PcZ-1, in the presence of propiconazole, wherein A represents wild type Chlorella sorokiniana grown in the absence of propiconazole, B represents wild type Chlorella sorokiniana grown in the presence of 0.1% methanol, C represents wild type Chlorella sorokiniana grown in the presence of 10 μM propiconazole, D represents PcZ-1 grown in the absence of propiconazole, E represents PcZ-1 grown in the presence of 0.1% methanol, and F represents PcZ-1 grown in the presence of 10 μM propiconazole. […]

Where “and” joins values, the source holds several entries; their conditions need not be identical. Equal entries are not always repeated.

In the case of `CCCC1COC(Cn2cncn2)(c2ccc(Cl)cc2Cl)O1` (stereo not drawn) [propiconazole, Propiconazole], the “Growth of PcZ-1 in the presence of propiconazole” value in assay [1] (10 μM propiconazole, continued to grow) is reported as “not affected”. Besides, the “Average % increase PcZ-1 + 10 uM PcZ” value in assay [1] (day 4) was 60.2%; in assay [1] (day 6), 27.1%; in assay [1] (day 7), 21.1%. Further, the “% increase PcZ-1 + 10 μM PcZ” value in assay [1] (day 4) is 45.5% and 66.7% and 68.6%; in assay [1] (day 6), 17.3% and 38.7% and 25.4%; in assay [1] (day 7), 10.6% and 29.4% and 23.2%. The “Concentration at which propiconazole is a potent grazicide” value with grazers was at least 0.5 ppm. Besides, the “Growth of the wild type Chlorella sorokiniana in the presence of propiconazole” value in assay [2] is listed as “inhibited”.
